Results: patent US12195745B2, “Compositions and methods for modulating transduction efficiency of adeno-associated viruses” (Massachusetts Eye and Ear Infirmary, priority 2018, dated 2025)

Columns and labels:
Huh7 cells [1] = assay: Neuraminidase inhibitor pre-treatment of Huh7 cells followed by AAV transduction (luciferase); format: cell-based, human; settings: for effect on transduction, short pre-treatment: 1 hour pre-treatment; for effect on AAV4 entry / effect on AAV5 transduction / effect on Anc80 transduction / decrease of rh32.33 transduction: 24 hours pre-treatment, 10,000 VG/cell; for decrease of rh32.33 transduction: CMV.Luciferase.SVPA
Method: All luciferase transduction assays were done by seeding 10,000 cells per well in black-bottom 96 well plates overnight. When indicated, cells were pre-incubated with 200 pfu/cell of WT hAd5 (University of Pennsylvania Vector core) in D10 for two hours, then hAd5-containing medium was removed prior to transduction. Cells were transduced with either AAV at 1×10^4 VG/cell in 50 μL serum-free DMEM (AAVR rescue experiments) for 1 h at 37° C., then D10 was added to a total volume of 200 μL, or 100 μl per well of crude virus prep (chimeric, and point mutant capsid experiments) was added for 1 h at 37° C., removed, then D10 was added. Transduction levels were analyzed by luciferase assay 48 hours post-transduction.
Two days post-transduction, cell culture medium was removed and cells were lysed in 20 μL per well of 1× Reporter Lysis Buffer (Promega, Cat#), then frozen at −80° C. After thaw, ffLuc expression was measured in Relative Light Units/s on a Synergy H1 Hybrid Multi-Mode Microplate reader using 100 μL luciferin buffer [200 mM Tris pH 8, 10 mM MgCl2, 300 μM ATP, 1× Firefly Luciferase signal enhancer (Thermo Cat#16180), and 150 μg/mL D-Luciferin].
Because NEU1 is an enzyme and CTSA, also identified in the entry screen (FIG. 5C), is required for maintaining the catalytically active conformation of NEU1 (D'Azzo et al., 1982, PNAS USA, 79:4535-9; and Vinogradova et al., 1998, Biochem. J. 330(Pt 2):641-50), whether enzymatic activity of NEU1 is required for its function was tested in rh32.33 and AAV4 entry. Two different sialic acid analog neuraminidase inhibitor compounds were used, Zanamivir (von Itzstein et al., 1993, Nature, 363:418-23) and DANA (Meindl et al., 1974, Virology, 58:457-63), to do a dose response on Huh7 cells and assess the effect on entry of different AAVR dependent and AAVR independent serotypes. Two different AAVR-dependent serotypes, AAV5 and Anc80, and two AAVR-independent serotypes, rh32.33 and AAV4, were tested. Importantly, AAV4 and AAV5 were examined because both AAVs use sialic acid as an attachment factor (Kaludov et al., 2001, J. Virol., 75:6884-93; and Walters et at, 2001, J. Biol. Chem., 276:20610-6) yet differ in their AAVR dependence.
Briefly, 10,000 cells per well were plated in 96-well plates 1 day prior to inhibitor treatment. […] When indicated, control or inhibitor treated cells were treated with 50 mU/mL Neuraminidase from Vibrio cholera Type III (Sigma Aldrich, Cat#N7885) in serum-free DMEM, followed by AAV transduction as described.

Huh7 cells [2] = assay: Inhibitor pre-treatment, then Neuraminidase from Vibrio cholera, then AAV transduction; format: cell-based, human; settings: 2 mM inhibitor 24 h, then 2 h Neuraminidase from Vibrio cholera
Method: Briefly, 10,000 cells per well were plated in 96-well plates 1 day prior to inhibitor treatment. Cells were incubated with the indicated concentration of Zanamivir (Sigma SML0492) or DANA (EMD Millipore 252926) for 24 hours prior to transduction in a total volume of 100 μL D10. When indicated, control or inhibitor treated cells were treated with 50 mU/mL Neuraminidase from Vibrio cholera Type III (Sigma Aldrich, Cat#N7885) in serum-free DMEM, followed by AAV transduction as described.
Because NEU1 and CTSA play a role in cellular glycosylation states, confirmation was desired that the entry defect was not due to an overall alteration in glycosylation at the cell surface, leading to an attachment, defect. To do this, cells were first pre-treated for 24 h with Zanamivir or DANA, followed by treatment with a neuraminidase from Vibrio cholera to remove any sialic acid that may have accumulated at the cell surface due to NEU1 inhibition.
The indicated pre-chilled vector was then added to cells on ice, incubated for 1 hour for the vectors to undergo attachment, unbound vector was washed away using ice-cold PBS, then transduction was allowed to proceed and vector transduction assessed in the different treatment conditions by fold-change relative to untreated control cells via luciferase assay. […]

CC(=O)N[C@H]1[C@H]([C@H](O)[C@H](O)CO)OC(C(=O)O)=C[C@@H]1O [DANA]
effect on transduction, short pre-treatment (Huh7 cells [1]): did not show any decrease in transduction
effect on AAV4 entry (Huh7 cells [1]): slightly decreased AAV4 entry
effect on AAV5 transduction (Huh7 cells [1]): Neither of the AAVR-dependent serotypes, AAV5 or Anc80, showed a decrease in transduction
effect on Anc80 transduction (Huh7 cells [1]): Neither of the AAVR-dependent serotypes, AAV5 or Anc80, showed a decrease in transduction
decrease of rh32.33 transduction (Huh7 cells [1]): roughly ten-fold
reversal of rh32.33 entry inhibition after neuraminidase treatment (Huh7 cells [2]): a reversal of entry inhibition was not observed

CC(=O)N[C@H]1[C@H]([C@H](O)[C@H](O)CO)OC(C(=O)O)=C[C@@H]1N=C(N)N [Zanamivir]
effect on transduction, short pre-treatment (Huh7 cells [1]): did not show any decrease in transduction
effect on AAV4 entry (Huh7 cells [1]): slightly decreased AAV4 entry
effect on AAV5 transduction (Huh7 cells [1]): Neither of the AAVR-dependent serotypes, AAV5 or Anc80, showed a decrease in transduction
effect on Anc80 transduction (Huh7 cells [1]): Neither of the AAVR-dependent serotypes, AAV5 or Anc80, showed a decrease in transduction
decrease of rh32.33 transduction (Huh7 cells [1]): roughly ten-fold
reversal of rh32.33 entry inhibition after neuraminidase treatment (Huh7 cells [2]): a reversal of entry inhibition was not observed
